Test results as given in ChEMBL document CHEMBL5143685, “Valorisation of the diterpene podocarpic acid - Antibiotic and antibiotic enhancing activities of polyamine conjugates” (Bioorg Med Chem, 2022).
≈ marks a conversion by molar mass, not a printed value.

Legend:
Escherichia coli = assay: Antibacterial activity against Escherichia coli ATCC 25922 assessed as inhibition of bacterial growth measured after 18 hrs by resazurin dye based analysis; format: functional
Acinetobacter baumannii = assay: Antibacterial activity against Acinetobacter baumannii ATCC 19606 assessed as inhibition of bacterial growth measured after 18 hrs by resazurin dye based analysis; format: functional
Staphylococcus aureus = assay: Antibacterial activity against methicillin-resistant Staphylococcus aureus ATCC 43300 assessed as inhibition of bacterial growth measured after 18 hrs by resazurin dye based analysis; format: functional
Klebsiella pneumoniae = assay: Antibacterial activity against Klebsiella pneumoniae ATCC 700603 assessed as inhibition of bacterial growth measured after 18 hrs by resazurin dye based analysis; format: functional
Cryptococcus neoformans = assay: Antifungal activity against Cryptococcus neoformans ATCC 208821 assessed as fungal growth inhibition incubated for 36 hrs by resazurin dye based analysis; format: functional
[1] = Cytotoxicity against HEK293 cells assessed as cell growth inhibition measured after 20 hrs by resazurin dye based assay; format: toxicity; settings: human
Candida albicans = assay: Antifungal activity against Candida albicans ATCC 90028 assessed as fungal growth inhibition incubated for 36 hrs by resazurin dye based analysis; format: functional
Pseudomonas aeruginosa = assay: Antibacterial activity against Pseudomonas aeruginosa ATCC 27853 assessed as inhibition of bacterial growth measured after 18 hrs by resazurin dye based analysis; format: functional

| Molecule | MIC (Escherichia coli) | MIC (Acinetobacter baumannii) | MIC (Staphylococcus aureus) | MIC (Klebsiella pneumoniae) | MIC (Cryptococcus neoformans) | IC50 at 20 h [1] | MIC (Candida albicans) | MIC (Pseudomonas aeruginosa) |
| --- | --- | --- | --- | --- | --- | --- | --- | --- |
| COC(=O)[C@@]1(C)CCC[C@]2(C)c3cc(OC(=O)CCCNCCCCNCCCNC(=O)Oc4ccc5c(c4)[C@@]4(C)CCC[C@](C)(C(=O)OC)[C@@H]4CC5)ccc3CC[C@@H]12.O=C(O)C(F)(F)F.O=C(O)C(F)(F)F | 30.2 µM | 30.2 µM | 1.89 µM | > 30.2 µM | 1.89 µM | 16.4 µM | 15.1 µM | > 30.2 µM |
| CCCCCNC(=O)[C@@]1(C)CCC[C@]2(C)c3cc(OC(=O)CCCNCCCCCCCCCCCCNCCCNC(=O)Oc4ccc5c(c4)[C@@]4(C)CCC[C@](C)(C(=O)NCCCCC)[C@@H]4CC5)ccc3CC[C@@H]12.O=C(O)C(F)(F)F.O=C(O)C(F)(F)F | > 25 µM | > 25 µM | 1.56 µM | > 25 µM | ≤ 0.19 µM | > 25 µM | ≤ 0.19 µM | > 25 µM |
| C[C@]1(C(=O)O)CCC[C@]2(C)c3cc(OC(=O)NCCCNCCCCCCCCCCCCN)ccc3CC[C@@H]12.O=C(O)C(F)(F)F.O=C(O)C(F)(F)F | > 32.8 µM | > 32.8 µM | > 32.8 µM | > 32.8 µM | > 32.8 µM | > 32.8 µM | 32.8 µM | > 32.8 µM |
| C[C@H]1c2cccc(O)c2C(=O)C2=C(O)[C@]3(O)C(=O)C(C(N)=O)=C(O)[C@@H](N(C)C)[C@@H]3[C@@H](O)[C@@H]21 [DOXYCYCLINE] | – | – | – | – | – | – | – | 90 µM (≈ 40 µg/mL) |
| C[C@]1(C(=O)NCCCNCCCCCCCCNCCCNC(=O)[C@@]2(C)CCC[C@]3(C)c4cc(O)ccc4CC[C@@H]23)CCC[C@]2(C)c3cc(O)ccc3CC[C@@H]12.O=C(O)C(F)(F)F.O=C(O)C(F)(F)F | 32 µM | 32 µM | 8 µM | > 32 µM | 32 µM | 18.1 µM | 32 µM | > 32 µM |
| C[C@]1(C(=O)NCCCNCCCCCCCNCCCNC(=O)[C@@]2(C)CCC[C@]3(C)c4cc(O)ccc4CC[C@@H]23)CCC[C@]2(C)c3cc(O)ccc3CC[C@@H]12.O=C(O)C(F)(F)F.O=C(O)C(F)(F)F | 32.5 µM | > 32.5 µM | 32.5 µM | > 32.5 µM | 32.5 µM | 19.1 µM | 32.5 µM | > 32.5 µM |
| COLISTIN | 0.1 µM | 0.2 µM | – | 0.2 µM | – | – | – | 0.2 µM |
| C[C@]1(C(=O)NCCCNCCCCCCCCN)CCC[C@]2(C)c3cc(O)ccc3CC[C@@H]12.O=C(O)C(F)(F)F.O=C(O)C(F)(F)F | > 46.7 µM | > 46.7 µM | 46.7 µM | > 46.7 µM | > 46.7 µM | > 46.7 µM | > 46.7 µM | > 46.7 µM |
| CCCCCNC(=O)[C@@]1(C)CCC[C@]2(C)c3cc(OC(=O)CCCNCCCCCCCCNCCCNC(=O)Oc4ccc5c(c4)[C@@]4(C)CCC[C@](C)(C(=O)NCCCCC)[C@@H]4CC5)ccc3CC[C@@H]12.O=C(O)C(F)(F)F.O=C(O)C(F)(F)F | > 26.1 µM | > 26.1 µM | 1.63 µM | > 26.1 µM | ≤ 0.2 µM | > 26.1 µM | ≤ 0.2 µM | > 26.1 µM |
| COC(=O)[C@@]1(C)CCC[C@]2(C)c3cc(OC(=O)CCCNCCCCCCCCCCNCCCNC(=O)Oc4ccc5c(c4)[C@@]4(C)CCC[C@](C)(C(=O)OC)[C@@H]4CC5)ccc3CC[C@@H]12.O=C(O)C(F)(F)F.O=C(O)C(F)(F)F | > 28 µM | > 28 µM | 3.5 µM | > 28 µM | ≤ 0.22 µM | 1.3 µM | ≤ 0.22 µM | > 28 µM |
| C[C@]1(C(=O)NCCCNCCCCCCCN)CCC[C@]2(C)c3cc(O)ccc3CC[C@@H]12.O=C(O)C(F)(F)F.O=C(O)C(F)(F)F | > 47.6 µM | > 47.6 µM | > 47.6 µM | > 47.6 µM | > 47.6 µM | > 47.6 µM | > 47.6 µM | > 47.6 µM |
| C[C@]1(C(=O)O)CCC[C@]2(C)c3cc(OC(=O)CCCNCCCCCCCCNCCCNC(=O)Oc4ccc5c(c4)[C@@]4(C)CCC[C@](C)(C(=O)O)[C@@H]4CC5)ccc3CC[C@@H]12.O=C(O)C(F)(F)F.O=C(O)C(F)(F)F | > 29.4 µM | > 29.4 µM | > 29.4 µM | > 29.4 µM | ≤ 0.23 µM | > 29.4 µM | 14.7 µM | > 29.4 µM |
| C[C@]1(C(=O)O)CCC[C@]2(C)c3cc(OC(=O)NCCCNCCCCCCN)ccc3CC[C@@H]12.O=C(O)C(F)(F)F.O=C(O)C(F)(F)F | > 45.6 µM | > 45.6 µM | > 45.6 µM | > 45.6 µM | > 45.6 µM | > 45.6 µM | > 45.6 µM | > 45.6 µM |
